One data set deals with H3K27Ac. The data set is described as follows: immunoblot with antibody against H3K27Ac in SK-N-MC cells. The class given is cell-based, human. To be noted: vs vehicle-treated cells. How it is done:
For western blot analysis, protein samples (20 μg) were run on a 4-20% gradient SDS-polyacrylamide gel (Biorad) and transferred onto a polyvinylidene fluoride (PVDF) membrane filter (0.2 μm; Biorad) using an electroblot apparatus (Bio-Rad, Hercules, Calif.) at 100V for 1 h in transfer buffer (25 mM Tris-HCl, 192 mM glycine, 0.1% SDS, 20% (v/v) methanol). The membrane was incubated in blocking solution (50 mM Tris-HCl, 200 mM NaCl, 1 mM MgCl2, pH 7.4) containing 5% non-fat dry milk powder for 1 hour at room temperature. The membrane was processed through sequential incubations with primary antibody overnight at 4° C. followed by incubation with horseradish peroxidase-conjugated species specific secondary antibody at 1:250 dilutions (Thermo Scientific Pierce). Immunoreactive proteins on the membrane were visualized using the SuperSignal™ West Pico Chemiluminescent kit (Thermo Scientific Pierce). Scanned western blots were analyzed using ImageJ software, version 1.47. Pictures were inverted and usually the background signal from an empty lane was subtracted to obtain specific signals for each lane.

The nature of data set [1]: pharmacokinetics mouse study (plasma and brain, LC-MS/MS). The data set is classed as in vivo. The method, then:
The clenbuterol pharmacokinetic (PK) study was done in wild-type C57BL/6J male mice by ChemPartner Co., LTD in Shanghai. The study was done with 4 groups of four mice; one control group and three treatment groups with clenbuterol administered via intraperitoneal injection at dosages of 1, 5 and 10 mg/kg once every 24 hours. Following completion of the administration schedule, blood samples were collected at various time points (e.g. 0.25, 2, 8, and 24 hours), from the four mice per group per time point (final time point of 24 hours post injection). Mice were sacrificed following each blood collection and brains were removed and snap frozen. Substantia nigra was utilized for SNCA mRNA and protein analysis, whereas the other portions were used for PK studies. Plasma and brain samples were analyzed by LC-MS/MS for compound concentration at each of three concentrations and at each time point. Standard pharmacokinetic parameters (e.g. AUClast, AUCINF, terminal elimination half-life (t1/2), clearance, volume of distribution, time at maximum observed plasma concentration, etc.) were determined in both plasma and brain tissueby WinNonlin V 6.2 statistics software (Pharsight Corporation, California, USA) using a non-compartmental model.

In another data set the test system is α-synuclein protein. Nature of the data set: α-synuclein-specific ELISA in SK-N-MC cells. The class given is cell-based, human. The method, then: Protein lysis buffer containing 320 mM sucrose, 5 mM NaF, 1 mM Na3VO4, 10 mM Tris (pH 7.4), 1 mM EGTA, and 1 mM EDTA was used for mice brain tissue lysis. 100 μL of cold extraction buffer was added to each sample and homogenized in a dounce homogenizer. After incubating on ice for 10 minutes post-homogenization, samples were centrifuged at 10,000 rpm at 4° C. for 10 minutes. Supernatant was transferred to new tubes and centrifuged again at 10,000 rpm at 4° C. for additional 10 minutes. The final supernatant was transferred to new tubes and protein estimation was performed by ELISA. Total protein from rodent primary cells, human neuroblastoma cells and iPSC-derived neuronal cells was extracted using lysis buffer containing 1×PBS and 0.5% NP-40. Cells were washed once with cold PBS and lysed by adding cold lysis buffer. The cells were collected by scraping, then incubated for 30 minutes by rotating at 4° C. The samples were centrifuged at 14,000 rpm at 4° C. for 10 minutes and supernatant was transferred to new tubes. Total protein concentrations were determined by BCA assay (Thermo Scientific) according to the manufacturer's instructions. Total α-synuclein was quantified using an α-synuclein-specific sandwich ELISA.
An α-synuclein-specific Meso Scale Discovery (MSD) ELISA assay (described in Ref. (11)) was utilized for endogenous α-synuclein protein measurement. […] After samples were emptied and plate washed 3 times with TBS-T, sulfo-tagged SOY1 mAb (detection Ab) (generated using Sulfo-Tag-NHS-Ester (MSD) diluted in blocking buffer (6.7 ng/μl), was added to the plate (30 μl volumes/well) and shaken for 1 hour at room temperature. Following 3 washes, MSD Read (2×, diluted in ultrapure water) buffer was added and the plates were immediately measured using a MSD Sector 2400 imager. For confirmatory studies, an second α-synuclein-specific ELISA implementation was used employing a different, extensively published anti-α-synuclein detection antibody (Syn-1 mAb) and a different anti-α-synuclein capture antibody (1H9, courtesy Dr. Selkoe).
A general note: In an ELISA, binding on a coated surface is turned into a signal by an enzyme label.

Data set [2] deals with NPCs carrying the SNCA triplication. Nature of the data set: MitoSox assay of mitochondria-associated superoxide in SNCA-triplication NPCs exposed to rotenone. The data set is classed as cell-based, human. To be noted: 20 μM rotenone, 20 μM clenbuterol. The method, then:
Patient-derived NPCs carrying the familial SNCA triplication were generated as described previously (28). NPCs were seeded at […] in 96-well plates (Greiner Cellcoat μClear) for HTS plate reader analysis (Polarstar Omega, BMG). For experiments with toxicants and inhibitors, NPCs were cultured under the following conditions for 18 hours unless specified differently in the experiment procedures: Standard NPC growth medium, growth medium plus 20 μM rotenone (Sigma).
For the Plate Reader HTS, each experiment was conducted with 6 replicates per cell line and treatment regimen. NPCs were treated with 20 μM clenbuterol for four days. Signals from individual wells were acquired with integration of fluorescence signals over 1 second duration by bottom read in orbital mode (8-spot measurements with 2 mm radius). […]
For the MitoSox assay for the detection of mitochondria-associated superoxide levels, adherent NPCs in 96-well plates were incubated with 2 μM MitoSOX™ (Ex./Em. 510/580 nm) and MitoTracker® Green (485/520 nm) (both Life Technologies) in high glucose without phenol red (Life Technologies), containing supplements without antioxidants (Life Technologies) for 15 min at 37° C. in the dark. […] Fluorescence was detected by sequential readings, and MitoSOX™ signals were normalized to mitochondrial content (Mitotracker®) and cell number (Hoechst).

“Also recorded” adds a separate entry of the source.

For `CC(C)(C)NCC(O)c1cc(Cl)c(N)c(Cl)c1` (centres unmarked) [clenbuterol], the “H3K27Ac levels (Western blotting)” value in the data set on H3K27Ac is reported as “decreased”. Moreover, the brain concentration result in data set [1] (C57BL/6J mice, 10 mg/kg intraperitoneal vs 1 and 5 mg/kg) is listed as “highest”. In addition, the brain/plasma ratio entry in data set [1] (C57BL/6J mice, 1, 5, or 10 mg/kg intraperitoneal, 24 hours) was “increased with doses of 1, 5, or 10 mg of drug per kilogram body weight; also recorded: highest brain/plasma ratio”. Also, the blood-brain barrier crossing entry in data set [1] (wild type C57BL/6J mice, intraperitoneal) is “crossed the blood-brain barrier”. Moreover, the “α-synuclein protein after 14 days” value with α-synuclein protein (SK-N-MC cells, 10 μM, 14 days) was “lowered”. Besides, the “α-synuclein protein levels with increasing concentrations” value with α-synuclein protein (SK-N-MC cells, 5, 10, 20 μM, four days) is on record as “decrease”. Also, in data set [2], the “mitochondria associated superoxide production” value is given as “ameliorated this increased mitochondria associated superoxide production”.

Take `CC(C)NCC(O)COc1cccc2ccccc12` (centres unmarked) [Propranolol, propranolol]: the “endogenous α-synuclein protein under β2AR antagonism” value in the data set on α-synuclein protein (SK-N-MC cells) was “increased”.
